Data from patent US20210261621A1, “Preparation of Dilipid Polymixins and Use Thereof as Antimicrobial Adjuvants” (priority 2018, published 2021).
Like-named read-outs stand apart in the source and are kept apart here.

System: P. aeruginosa PAO1
Design: MICDrug / MICDrug in combo / MIC of adjuvant in combo: unit not given beside the values
Details: for MICDrug: antibiotic alone
Protocol: The potential of the dilipid polymyxins to serve as an adjuvant in combination with other antibiotics was evaluated against P. aeruginosa PAO1 strain (Tables 4 and 7-12). […] Checkerboard assays were performed with the dilipid polymyxins in combination with twenty-one clinically-used antibiotics. The panel included representatives from the β-lactam, carbapenem, tetracycline, aminoglycoside and fluoroquinolone antibiotic families. Other agents that are used to treat Gram-negative bacterial infection such as fosfomycin, trimethoprim and chloramphenicol were also included. […] Fractional inhibitory concentration (FIC) index was calculated for each combination to measure potential synergism between the two agents. FIC was obtained by dividing the MIC of antibiotic/adjuvant in combination by the MIC of antibiotic/adjuvant alone, while FIC index was calculated by the summation of FIC indices for the antibiotic and adjuvant. An FIC index of ≤0.5, 0.5<x≤4, or >4 denotes for synergistic, additive or antagonistic interaction, respectively. Initially, we assessed the adjuvant properties of PMBN against the panel of 21 antibiotics.
The assay was performed on 96-well plates as previously described. Briefly, the antibiotic at study was 2-fold serially diluted along the x-axis, while the adjuvant was 2-fold serially diluted along the y-axis to create a matrix in which each well consists of a combination of both at different concentrations. Overnight grown bacterial cultures were diluted in saline to 0.5 McFarland turbidity, followed by 1:50 dilution in MHB and inoculation on each well to a final concentration of approximately 5×10^5 colony forming units/mL. Wells containing only MHB with or without bacterial cells were used as positive or negative control, respectively. […] The fractional inhibitory concentration (FIC) of the antibiotic was calculated via dividing the MIC of antibiotic in the presence of adjuvant by the MIC of antibiotic alone. Similarly, the FIC of adjuvant was calculated via dividing the MIC of adjuvant in the presence of antibiotic by the MIC of adjuvant alone. The FIC index was obtained by the summation of both FIC values. The FIC index was then interpreted as synergistic, additive, or antagonistic for values of ≤0.5, 0.5<x<4, or ≥4, respectively.

[1] = antibiotic in combination with 1
[2] = antibiotic in combination with 2
[3] = antibiotic in combination with 3
[4] = antibiotic in combination with 4
[5] = antibiotic in combination with 5
[6] = antibiotic in combination with PMBN

| Compound | MICDrug | MICDrug in combo [1] | MICDrug in combo [2] | MICDrug in combo [3] | MICDrug in combo [4] | MICDrug in combo [5] | MICDrug in combo [6] |
| --- | --- | --- | --- | --- | --- | --- | --- |
| Gentamicin [reference compound] | 2 | (2) | (4) | (2) | (2) | (4) | (2) |
| CN(C)c1ccc(O)c2c1C[C@H]1C[C@H]3[C@H](N(C)C)C(O)=C(C(N)=O)C(=O)[C@@]3(O)C(O)=C1C2=O [Minocycline, reference compound] | 16 | (1) | (4) | (2) | (4) | (2) | (0.5) |
| CC(C)(O/N=C(\C(=O)N[C@@H]1C(=O)N2C(C(=O)[O-])=C(C[n+]3ccccc3)CS[C@H]12)c1csc(N)n1)C(=O)O [Ceftazidime, reference compound] | 2 | (0.25) | (1) | (1) | (0.0625) | (0.25) | (0.25) |
| C[C@H]1c2cccc(O)c2C(=O)C2=C(O)[C@]3(O)C(=O)C(C(N)=O)=C(O)[C@@H](N(C)C)[C@@H]3[C@@H](O)[C@@H]21 [Doxycycline, reference compound] |  | (0.5) | (0.125) | (1) | (4) | (0.25) | (0.25) |
| C[C@@H](O)[C@H]1C(=O)N2C(C(=O)O)=C(S[C@@H]3CN[C@H](CNS(N)(=O)=O)C3)[C@H](C)[C@H]12 [Doripenem, reference compound] | 1 | (0.5) | (0.125) | (0.5) | (0.0625) | (0.5) | (0.25) |
| C=C[C@]1(C)C[C@@H](OC(=O)CO)[C@]2(C)[C@H](C)CC[C@]3(CCC(=O)[C@H]32)[C@@H](C)[C@@H]1O [Pleuromutilin, reference compound] | 512 | (4) | (4) | (8) | (4) | (2) | (16) |
| CCN1CCN(C(=O)N[C@@H](C(=O)N[C@@H]2C(=O)N3[C@@H]2SC(C)(C)[C@@H]3C(=O)O)c2ccccc2)C(=O)C1=O [Piperacillin, reference compound] | 4 | (2) | (0.0625) | (2) | (4) | (2) | (1) |
| CC(=O)NC[C@H]1CN(c2ccc(N3CCOCC3)c(F)c2)C(=O)O1 [Linezolid, reference compound] | 1024 | (64) | (1) | (0.25) | (0.25) | (32) | (32) |
| CO[C@H]1/C=C/O[C@@]2(C)Oc3c(C)c(O)c4c(O)c(c(/C=N/N5CCN(C)CC5)c(O)c4c3C2=O)NC(=O)/C(C)=C\C=C\[C@H](C)[C@H](O)[C@@H](C)[C@@H](O)[C@@H](C)[C@H](OC(C)=O)[C@@H]1C [Rifampicin, reference compound] | 16 |  | (8) | (8) | (0.25) | (1) | (0.0625) |
| C[C@H]1[C@H](NC(=O)/C(=N\OC(C)(C)C(=O)O)c2csc(N)n2)C(=O)N1S(=O)(=O)O [Aztreonam, reference compound] | 4 | (0.5) |  | (1) | (0.0625) | (0.5) | (0.5) |
| C[C@@H](O)[C@H]1C(=O)N2C(C(=O)O)=C(S[C@@H]3CN[C@H](C(=O)N(C)C)C3)[C@H](C)[C@H]12 [Meropenem, reference compound] |  | (0.25) | (0.0625) | (0.5) | (0.5) | (0.5) | (0.125) |
| NC[C@H]1O[C@H](O[C@H]2[C@H](O)[C@@H](O[C@H]3O[C@H](CO)[C@@H](O)[C@H](N)[C@H]3O)[C@H](N)C[C@@H]2N)[C@H](N)C[C@@H]1O [Tobramycin, reference compound] | 1 | (1) | (1) | (1) | (1) | (1) | (1) |
| O=C(N[C@H](CO)[C@H](O)c1ccc([N+](=O)[O-])cc1)C(Cl)Cl [Chloramphenicol, reference compound] | 32 | (2) | (4) | (4) | (4) | (8) | (2) |
| CO[C@@H]1[C@@H](OC(N)=O)[C@@H](O)[C@H](Oc2ccc3c(O)c(NC(=O)c4ccc(O)c(CC=C(C)C)c4)c(=O)oc3c2C)OC1(C)C [Novobiocin, reference compound] | 512 | (16) | (8) | (0.5) | (2) | (128) | (4) |
| [H]/N=C(/N)N[C@H]1[C@H](O)[C@@H](O)[C@H](O[C@@H]2O[C@@H](C)[C@](O)(C=O)[C@H]2O[C@@H]2O[C@@H](CO)[C@H](O)[C@@H](O)[C@@H]2NC)[C@@H](N/C(N)=N\[H])[C@@H]1O [Streptomycin, reference compound] | 16 | (8) | (4) | (16) | (16) | (8) | (8) |
| COc1cc(Cc2cnc(N)nc2N)cc(OC)c1OC [Trimethoprim, reference compound] | 128 | (16) | (8) | (16) | (0.25) | (16) | (8) |
| C[C@@H]1O[C@@H]1P(=O)(O)O [Fosfomycin, reference compound] |  | (2) | (0.125) | (8) | (8) | (1) | (2) |
| COc1c(N2C[C@@H]3CCCN[C@@H]3C2)c(F)cc2c(=O)c(C(=O)O)cn(C3CC3)c12 [Moxifloxacin, reference compound] | 1 | (0.125) | (1) | (0.5) | (1) | (0.25) | (0.125) |
| CN[C@H](CC(C)C)C(=O)N[C@H]1C(=O)N[C@@H](CC(N)=O)C(=O)N[C@H]2C(=O)N[C@H]3C(=O)N[C@H](C(=O)N[C@H](C(=O)O)c4cc(O)cc(O)c4-c4cc3ccc4O)[C@H](O)c3ccc(c(Cl)c3)Oc3cc2cc(c3O[C@@H]2O[C@H](CO)[C@@H](O)[C@H](O)[C@H]2O[C@H]2C[C@](C)(N)[C@H](O)[C@H](C)O2)Oc2ccc(cc2Cl)[C@H]1O [Vancomycin, reference compound] | 256 | (8) | (2) | (128) | (64) | (2) | (4) |
